Laboratory results: patent US20250197864A1, “LNCRNA TRANSCRIPTS IN MELANOMAGENESIS” (The Regents of the University of California, priority 2021, published 2025)

Test system: gene expression in D04 melanoma cells
Assay: RNA-Seq differential expression analysis (DESeq2)
Assay type: cell-based, human
Method: Total RNA was isolated using the RNeasy mini Kit (QIAGEN) following the manufacturer's protocol. Quality check for extracted RNA was done using 2100 Bioanalyzer (Agilent Technologies, USA) or Tapestation System (Agilent Technologies, USA). […] For samples used for identification of MAPK-responsive lncRNAs, paired-end, 101-bp sequencing was performed by Centrillion Genomic Services (Centrillion Biosciences, USA) on an Illumina HiSeq 2000. For DE gene analysis of ASO-transfected D04 samples, paired-end, 2×150-bp sequencing was performed by Genewiz (USA) on a Illumina HiSeq.
Sequence reads were aligned to the human genome (hg19) using TopHat (Version 2.0.11).
Differential expression (DE) analysis was done using DESeq2. Differentially expressed genes were defined by more than 1.5-fold changes (log 2 >0.58 or <−0.58) in expression with FDR<0.05. GO term analysis was done using DAVID Functional Annotation Clustering analysis.
To examine the biomolecular changes upon TRASH-inhibition in melanoma, D04 cells were treated with TRASH-ASOs (SEQ ID NO:15) and Control-ASOs and RNA was extracted and used for RNA-Seq. […] These GO terms consisted of genes encoding growth factors, tyrosine kinases, G protein coupled receptor subunits, and collagen subunits. Scatter plot diagram showing differential gene expression after TRASH-ASO treatment compared to Control-ASO treatment. (cut-off for significance was adjusted p-value <0.05). Data was obtained from RNA-Seq of D04 melanoma cells, treatment period was three days. (FIG. 5c)

[1] = D04 cells, three days, vs Control-ASO, cut off >1.5-fold change and FDR <0.05

## GACTGGAGATAATTAA (gapmer, pattern not given here) [SEQ ID NO: 15, GapmeR ASO targeting AC004540.4 (TRASH), exon region of both isoforms; used for in vitro experiments]
CATSPERG (ENSG00000099338)
  log2FoldChange: 1.259
CCDC187 (ENSG00000260220)
  log2FoldChange: 2.881
CD274 (ENSG00000120217)
  log2FoldChange: 1.226
CD300C (ENSG00000167850)
  log2FoldChange: 2.474
CDH4 (ENSG00000179242)
  log2FoldChange: 1.668
CELF2 (ENSG00000048740)
  log2FoldChange: −0.6612
CFI (ENSG00000205403)
  log2FoldChange: −0.6803
CHCHD10 (ENSG00000250479)
  log2FoldChange: −0.6153
CHL1 (ENSG00000134121)
  log2FoldChange: −0.6927
CHMP1B2P (ENSG00000278530)
  log2FoldChange: −0.6924
CIITA (ENSG00000179583)
  log2FoldChange: −0.6508
CLDN3 (ENSG00000165215)
  log2FoldChange: 1.402
CNTN1 (ENSG00000018236)
  log2FoldChange: −0.6103
CNTNAP3B (ENSG00000154529)
  log2FoldChange: −0.6749
COL4A5 (ENSG00000188153)
  log2FoldChange: −0.6293
COL20A1 (ENSG00000101203)
  log2FoldChange: 2.951
COL27A1 (ENSG00000196739)
  log2FoldChange: −0.6335
COLGALT2 (ENSG00000198756)
  log2FoldChange: −0.6617
CREB3L3 (ENSG00000060566)
  log2FoldChange: −0.704
CREG2 (ENSG00000175874)
  log2FoldChange: −0.6351
CSF2RB (ENSG00000100368)
  log2FoldChange: 3.672
CSMD3 (ENSG00000164796)
  log2FoldChange: −0.6823
CX3CL1 (ENSG00000006210)
  log2FoldChange: −0.5835
CYP4F32P (ENSG00000223564)
  log2FoldChange: −0.6527
CYP27A1 (ENSG00000135929)
  log2FoldChange: −0.625
[1]
  number of genes down-regulated: 574 genes
  number of genes up-regulated: 493 genes
DAW1 (ENSG00000123977)
  log2FoldChange: 2.338
DBNDD1 (ENSG00000003249)
  log2FoldChange: −0.6098
DCAF8L2 (ENSG00000189186)
  log2FoldChange: −0.6365
DCLK1 (ENSG00000133083)
  log2FoldChange: 2.001
DHRS3 (ENSG00000162496)
  log2FoldChange: −0.6585
DHRS11 (ENSG00000278535)
  log2FoldChange: −0.6876
DLEU7 (ENSG00000186047)
  log2FoldChange: 1.438
DLG4 (ENSG00000132535)
  log2FoldChange: −0.6697
DLX1 (ENSG00000144355)
  log2FoldChange: −0.6655
DMPK (ENSG00000104936)
  log2FoldChange: −0.6857
DNAH6 (ENSG00000115423)
  log2FoldChange: 1.798
DNAH11 (ENSG00000105877)
  log2FoldChange: 1.75
DOK7 (ENSG00000175920)
  log2FoldChange: 1.741
DPF3 (ENSG00000205683)
  log2FoldChange: 1.473
DRGX (ENSG00000165606)
  log2FoldChange: 1.312
DYNC1I2 (ENSG00000077380)
  log2FoldChange: −0.6997
EMILIN1 (ENSG00000138080)
  log2FoldChange: −0.6247
ENO3 (ENSG00000108515)
  log2FoldChange: −0.6026
ENOX1 (ENSG00000120658)
  log2FoldChange: −0.7019
ENOX2 (ENSG00000165675)
  log2FoldChange: −0.6448
ENSG00000006459, up-regulated list
  log2FoldChange KDM7A: 0.6751
ENSG00000006606, up-regulated list
  log2FoldChange CCL26: 0.6667
ENSG00000023445, up-regulated list
  log2FoldChange BIRC3: 0.9484
ENSG00000049759, up-regulated list
  log2FoldChange NEDD4L: 0.9476
ENSG00000050438, up-regulated list
  log2FoldChange SLC4A8: 1.215
ENSG00000052749, up-regulated list
  log2FoldChange RRP12: 0.614
ENSG00000053524, up-regulated list
  log2FoldChange MCF2L2: 0.71
ENSG00000058335, up-regulated list
  log2FoldChange RASGRF1: 1.152
ENSG00000060762, up-regulated list
  log2FoldChange MPC1: 0.9395
ENSG00000065621, up-regulated list
  log2FoldChange GSTO2: 0.6503
ENSG00000070182, up-regulated list
  log2FoldChange SPTB: 0.7656
ENSG00000070669, up-regulated list
  log2FoldChange ASNS: 0.7766
ENSG00000072041, up-regulated list
  log2FoldChange SLC6A15: 0.8053
ENSG00000073711, up-regulated list
  log2FoldChange PPP2R3A: 0.6253
ENSG00000075618, up-regulated list
  log2FoldChange FSCN1: 0.7766
ENSG00000076513, up-regulated list
  log2FoldChange ANKRD13A: 0.723
ENSG00000080166, up-regulated list
  log2FoldChange DCT: 0.9874
ENSG00000081923, up-regulated list
  log2FoldChange ATP8B1: 0.9522
ENSG00000082497, up-regulated list
  log2FoldChange SERTAD4: 0.7371
ENSG00000085563, up-regulated list
  log2FoldChange ABCB1: 0.7955
ENSG00000086696, up-regulated list
  log2FoldChange HSD17B2: 0.6195
ENSG00000086730, up-regulated list
  log2FoldChange LAT2: 0.8215
ENSG00000087074, up-regulated list
  log2FoldChange PPP1R15A: 0.8007
ENSG00000090382, up-regulated list
  log2FoldChange LYZ: 0.9901
ENSG00000095203, up-regulated list
  log2FoldChange EPB41L4B: 1.165
ENSG00000095383, up-regulated list
  log2FoldChange TBC1D2: 0.7709
ENSG00000095752, up-regulated list
  log2FoldChange IL11: 1.064
ENSG00000096696, up-regulated list
  log2FoldChange DSP: 0.6307
ENSG00000099812, up-regulated list
  log2FoldChange MISP: 1.058
ENSG00000099834, up-regulated list
  log2FoldChange CDHR5: 0.8144
ENSG00000100031, up-regulated list
  log2FoldChange GGT1: 0.8806
ENSG00000100385, up-regulated list
  log2FoldChange IL2RB: 0.8537
ENSG00000100867, up-regulated list
  log2FoldChange DHRS2: 0.8953
ENSG00000100994, up-regulated list
  log2FoldChange PYGB: 0.8557
ENSG00000101187, up-regulated list
  log2FoldChange SLCO4A1: 1.202
ENSG00000101680, up-regulated list
  log2FoldChange LAMA1: 0.7271
ENSG00000102003, up-regulated list
  log2FoldChange SYP: 1.211
ENSG00000103154, up-regulated list
  log2FoldChange NECAB2: 0.9871
ENSG00000104419, up-regulated list
  log2FoldChange NDRG1: 0.6175
ENSG00000104907, up-regulated list
  log2FoldChange TRMT1: 0.655
